Data published in ChEMBL document CHEMBL4334531, “Kalshinoids A-F, Anti-inflammatory Sesquiterpenes from Kalimeris shimadae” (J Nat Prod, 2019).
Active and inactive are the calls of the source. The rule behind the calls is not given here.

Experiments:
[1] = tested on: THP-1; assay: Antiinflammatory activity against human THP1 cells assessed as inhibition of LPS-induced TNFalpha production at 200 uM preincubated for 4 hrs followed by LPS challenge and measured after 24 hrs incubation by ELISA; type: functional, cell-based
[2] = tested on: THP-1; assay: Antiinflammatory activity against human THP1 cells assessed as inhibition of LPS-induced TNFalpha production by measuring TFNalpha level at 5 uM preincubated for 4 hrs followed by LPS challenge and measured after 24 hrs incubation by ELISA; type: functional
[3] = Cytotoxicity against human THP1 cells assessed as cell viability at 40 uM after 72 hrs by SRB assay relative to control; type: cell-based; conditions: THP-1 cells, read-out: Activity
[4] = tested on: THP-1; assay: Antiinflammatory activity against human THP1 cells assessed as inhibition of LPS-induced TNFalpha production by measuring TFNalpha level at 10 uM preincubated for 4 hrs followed by LPS challenge and measured after 24 hrs incubation by ELISA; type: functional
[5] = tested on: THP-1; assay: Antiinflammatory activity against human THP1 cells assessed as inhibition of LPS-induced TNFalpha production preincubated for 4 hrs followed by LPS challenge and measured after 24 hrs incubation by ELISA; type: functional, cell-based
[6] = tested on: THP-1; assay: Cytotoxicity against human THP1 cells assessed as reduction in cell viability after 72 hrs by SRB assay; type: cell-based; conditions: THP-1, 72 h

| SMILES | inhibition [1] | Activity [2] | viability at 72 h, 40 µM [3] | Activity [4] | inhibition [5] | IC50 [6] |
| --- | --- | --- | --- | --- | --- | --- |
| C[C@@H]1C[C@H]2[C@@H]3CCC4=CC(=O)C=C[C@]4(C)[C@@]3(F)[C@@H](O)C[C@]2(C)[C@@]1(O)C(=O)CO | Active |  |  |  |  |  |
| C=C1CC[C@@H](O)[C@]2(C)CC[C@@](O)(C(C)(C)O)C[C@@H]12 |  | 394.3 pg/mL | > 80% | 328.9 pg/mL | Dose-dependent effect | > 40 µM |
| CC(C)(O)C1=CC[C@@](C)(O)[C@H]2CC[C@@](C)(O)[C@H]2C1 |  | 699.2 pg/mL | > 80% | 241.7 pg/mL | Dose-dependent effect | > 40 µM |
| COC(C)(C)C1=CC[C@@](C)(O)[C@H]2CC[C@](C)(O)[C@H]2C1 |  | 801.6 pg/mL | > 80% | 722.2 pg/mL | Dose-dependent effect | > 40 µM |
